Results reported in patent US20070179060A1, “6-(Poly-substituted aryl)-4-aminopicolinates and their use as herbicides” (priority 2006, published 2007).

Tests used:
Assay type in all cases: in vivo
[1] = tested on: wheat (Triticum aestivum); assay: Postemergence herbicidal activity in cereal crops; details: Triticum aestivum, post-emergence, 480 h, crop, post-emergent, after 20-22 days, read-out: % Control TRZAS; for plant injury at 17.5 g/ha: 17.5 g ai/ha; for plant injury at 35 g/ha: 35 g ai/ha
Procedure, shortened: (§1)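 Greenhouse plants (about 18 °C day/17 °C night, ~14 h photoperiod) were grown 7-36 days to the second or third true leaf stage. They were then sprayed overhead at 187 L/ha with compound in acetone/water/isopropanol/DMSO/crop oil/Triton X-77 carrier. Blank-sprayed plants served as controls, and watering was by sub-irrigation to avoid wash-off.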

Papaver rhoeas = assay: Postemergence herbicidal activity in cereal crops; details: Papaver rhoeas, post-emergence, 480 h, post-emergent, after 20-22 days, read-out: % Control PAPRH; for pest or weed control at 17.5 g/ha: 17.5 g ai/ha; for pest or weed control at 35 g/ha: 35 g ai/ha
Procedure, shortened: as §1

Galium aparine = assay: Postemergence herbicidal activity in cereal crops; details: Galium aparine, post-emergence, 480 h, post-emergent, after 20-22 days, read-out: % Control GALAP; for pest or weed control at 17.5 g/ha: 17.5 g ai/ha; for pest or weed control at 35 g/ha: 35 g ai/ha
Procedure, shortened: as §1

Veronica persica = assay: Postemergence herbicidal activity in cereal crops; details: Veronica persica, post-emergence, 480 h, post-emergent, after 20-22 days, read-out: % Control VERPE; for pest or weed control at 17.5 g/ha: 17.5 g ai/ha; for pest or weed control at 35 g/ha: 35 g ai/ha
Procedure, shortened: as §1

Lamium purpureum = assay: Postemergence herbicidal activity in cereal crops; details: Lamium purpureum, post-emergence, 480 h, post-emergent, after 20-22 days, read-out: % Control LAMPU; for pest or weed control at 17.5 g/ha: 17.5 g ai/ha; for pest or weed control at 35 g/ha: 35 g ai/ha
Procedure, shortened: as §1

barley (Hordeum vulare) = assay: Postemergence herbicidal activity in cereal crops; details: Hordeum, post-emergence, 480 h, crop, post-emergent, after 20-22 days, read-out: % Control HORVS; for pest or weed control at 17.5 g/ha: 17.5 g ai/ha; for pest or weed control at 35 g/ha: 35 g ai/ha
Procedure, shortened: as §1

[2] = tested on: velvetleaf (Abutilon theophrasti); assay: Preemergence herbicidal activity; details: Abutilon theophrasti, pre-emergence, 480 h, pre-emergent, after 20-22 days, read-out: % Control ABUTH; for pest or weed control at 140 g/ha: 140 g ai/ha
Procedure, shortened: (§2)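 Seeds sown in 70:30 loam (pH about 8.1, about 1.5% organic matter) and sand mix, then sprayed preemergence at 187 L/ha with a track sprayer; controls received solvent blank. Pots kept in greenhouse, about 15 h photoperiod, about 23-29° C. day and 22-28° C. night, top-irrigated.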

[3] = tested on: redroot pigweed (Amaranthus retroflexus); assay: Preemergence herbicidal activity; details: Amaranthus retroflexus, pre-emergence, 480 h, pre-emergent, after 20-22 days, read-out: % Control AMARE; for pest or weed control at 140 g/ha: 140 g ai/ha
Procedure, shortened: as §2

[4] = tested on: lambsquarter (Chenopodium album); assay: Preemergence herbicidal activity; details: Chenopodium album, pre-emergence, 480 h, pre-emergent, after 20-22 days, read-out: % Control CHEAL; for pest or weed control at 140 g/ha: 140 g ai/ha
Procedure, shortened: as §2

[5] = tested on: velvetleaf (Abutilon theophrasti); assay: Postemergence herbicidal activity; details: post-emergent, 140 g ai/ha, after 14 days; for pest or weed control at 140 g/ha: Abutilon theophrasti, post-emergence, 336 h, read-out: % Control ABUTH
Procedure, shortened: (§3)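 Compounds were applied postemergence by track sprayer delivering 187 L/ha, using a mixed organic/aqueous carrier containing crop oil concentrate and surfactant; solvent-blank sprays served as controls. Test plants were at the first to second true leaf stage after 7-21 days' greenhouse growth, were sub-irrigated after treatment, and were evaluated by probit analysis.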

[6] = tested on: redroot pigweed (Amaranthus retroflexus); assay: Postemergence herbicidal activity; details: post-emergent, 140 g ai/ha, after 14 days; for pest or weed control at 140 g/ha: Amaranthus retroflexus, post-emergence, 336 h, read-out: % Control AMARE
Procedure, shortened: as §3

[7] = tested on: lambsquarter (Chenopodium album); assay: Postemergence herbicidal activity; details: post-emergent, 140 g ai/ha, after 14 days; for pest or weed control at 140 g/ha: Chenopodium album, post-emergence, 336 h, read-out: % Control CHEAL
Procedure, shortened: as §3

Structure (SMILES): COC(=O)c1nc(-c2ccc(Br)c(OC)c2F)cc(N)c1Cl [Compound 27, 4-amino-6-(4-bromo-2-fluoro-3-methoxyphenyl)-3-chloro-pyridine-2-carboxylic acid methyl ester]
- plant injury at 17.5 g/ha [1]: 5%
- pest or weed control at 17.5 g/ha (Papaver rhoeas): 100%
- pest or weed control at 17.5 g/ha (Galium aparine): 99%
- pest or weed control at 17.5 g/ha (Veronica persica): 50%
- pest or weed control at 17.5 g/ha (Lamium purpureum): 100%
- pest or weed control at 17.5 g/ha (barley (Hordeum vulare)): 5%
- pest or weed control at 140 g/ha [2]: 100%
- pest or weed control at 140 g/ha [3]: 100%
- pest or weed control at 140 g/ha [4]: 90%
- pest or weed control at 140 g/ha [5]: 100%
- pest or weed control at 140 g/ha [6]: 90%
- pest or weed control at 140 g/ha [7]: 100%

Structure (SMILES): COC(=O)c1nc(-c2ccc(Cl)c(OC)c2F)cc(N)c1Cl [Compound 42, 4-Amino-3-chloro-6-(4-chloro-2-fluoro-3-methoxyphenyl)pyridine-2-carboxylic acid methyl ester]
- plant injury at 17.5 g/ha [1]: 5%
- pest or weed control at 17.5 g/ha (Papaver rhoeas): 99%
- pest or weed control at 17.5 g/ha (Galium aparine): 99%
- pest or weed control at 17.5 g/ha (Veronica persica): 60%
- pest or weed control at 17.5 g/ha (Lamium purpureum): 100%
- pest or weed control at 17.5 g/ha (barley (Hordeum vulare)): 5%
- pest or weed control at 140 g/ha [2]: 100%
- pest or weed control at 140 g/ha [3]: 100%
- pest or weed control at 140 g/ha [4]: 100%
- pest or weed control at 140 g/ha [5]: 100%
- pest or weed control at 140 g/ha [6]: 100%
- pest or weed control at 140 g/ha [7]: 100%

Structure (SMILES): COC(=O)c1nc(-c2ccc(Cl)c(OC)c2Cl)cc(N)c1Cl [Compound 44, 4-Amino-3-chloro-6-(2,4-dichloro-3-methoxyphenyl)pyridine-2-carboxylic acid methyl ester]
- plant injury at 35 g/ha [1]: 10%
- pest or weed control at 35 g/ha (Papaver rhoeas): 90%
- pest or weed control at 35 g/ha (Galium aparine): 65%
- pest or weed control at 35 g/ha (Veronica persica): 60%
- pest or weed control at 35 g/ha (Lamium purpureum): 99%
- pest or weed control at 35 g/ha (barley (Hordeum vulare)): 5%
- pest or weed control at 140 g/ha [2]: 95%
- pest or weed control at 140 g/ha [3]: 30%
- pest or weed control at 140 g/ha [4]: 95%
- pest or weed control at 140 g/ha [5]: 100%
- pest or weed control at 140 g/ha [6]: 100%
- pest or weed control at 140 g/ha [7]: 100%

Structure (SMILES): COC(=O)c1nc(-c2c(F)cc(Cl)c(OC)c2F)cc(N)c1Cl [Compound 58, 4-Amino-3-chloro-6-(4-chloro-2,6-difluoro-3-methoxyphenyl)pyridine-2-carboxylic acid, methyl ester]
- plant injury at 17.5 g/ha [1]: 0%
- pest or weed control at 17.5 g/ha (Papaver rhoeas): 99%
- pest or weed control at 17.5 g/ha (Galium aparine): 100%
- pest or weed control at 17.5 g/ha (Veronica persica): 60%
- pest or weed control at 17.5 g/ha (Lamium purpureum): 100%
- pest or weed control at 17.5 g/ha (barley (Hordeum vulare)): 0%
- pest or weed control at 140 g/ha [2]: 100%
- pest or weed control at 140 g/ha [3]: 100%
- pest or weed control at 140 g/ha [4]: 100%
- pest or weed control at 140 g/ha [5]: 100%
- pest or weed control at 140 g/ha [6]: 100%
- pest or weed control at 140 g/ha [7]: 100%

Structure (SMILES): COC(=O)c1nc(-c2ccc(F)c(OC)c2F)cc(N)c1Cl [Compound 70, 4-Amino-3-chloro-6-(2,4-difluoro-3-methoxyphenyl)pyridine-2-carboxylic acid, methyl ester]
- plant injury at 17.5 g/ha [1]: 0%
- pest or weed control at 17.5 g/ha (Papaver rhoeas): 99%
- pest or weed control at 17.5 g/ha (Galium aparine): 99%
- pest or weed control at 17.5 g/ha (Veronica persica): 60%
- pest or weed control at 17.5 g/ha (Lamium purpureum): 100%
- pest or weed control at 17.5 g/ha (barley (Hordeum vulare)): 0%
- pest or weed control at 140 g/ha [2]: 100%
- pest or weed control at 140 g/ha [3]: 100%
- pest or weed control at 140 g/ha [4]: 100%
- pest or weed control at 140 g/ha [5]: 100%
- pest or weed control at 140 g/ha [6]: 100%
- pest or weed control at 140 g/ha [7]: 100%

Structure (SMILES): COC(=O)c1nc(-c2c(F)cc(Br)c(OC)c2F)cc(N)c1Cl [Compound 77, 4-Amino-6-(4-bromo-2,6-difluoro-3-methoxyphenyl)-3-chloropyridine-2-carboxylic acid, methyl ester]
- plant injury at 17.5 g/ha [1]: 0%
- pest or weed control at 17.5 g/ha (Papaver rhoeas): 99%
- pest or weed control at 17.5 g/ha (Galium aparine): 99%
- pest or weed control at 17.5 g/ha (Veronica persica): 65%
- pest or weed control at 17.5 g/ha (Lamium purpureum): 100%
- pest or weed control at 17.5 g/ha (barley (Hordeum vulare)): 0%
- pest or weed control at 140 g/ha [2]: 100%
- pest or weed control at 140 g/ha [3]: 100%
- pest or weed control at 140 g/ha [4]: 100%
- pest or weed control at 140 g/ha [5]: 100%
- pest or weed control at 140 g/ha [6]: 100%
- pest or weed control at 140 g/ha [7]: 100%

Structure (SMILES): COc1c(Cl)ccc(-c2cc(N)c(Cl)c(C(=O)O)n2)c1F [Compound 100, 4-Amino-3-chloro-6-(4-chloro-2-fluoro-3-methoxyphenyl)pyridine-2-carboxylic acid]
- plant injury at 17.5 g/ha [1]: 10%
- pest or weed control at 17.5 g/ha (Papaver rhoeas): 95%
- pest or weed control at 17.5 g/ha (Galium aparine): 90%
- pest or weed control at 17.5 g/ha (Veronica persica): 65%
- pest or weed control at 17.5 g/ha (Lamium purpureum): 100%
- pest or weed control at 17.5 g/ha (barley (Hordeum vulare)): 5%
- pest or weed control at 140 g/ha [2]: 100%
- pest or weed control at 140 g/ha [3]: 100%
- pest or weed control at 140 g/ha [4]: 100%
- pest or weed control at 140 g/ha [5]: 100%
- pest or weed control at 140 g/ha [6]: 100%
- pest or weed control at 140 g/ha [7]: 100%

Structure (SMILES): COc1c(Cl)ccc(-c2cc(N)c(Cl)c(C(=O)O)n2)c1Cl [Compound 103, 4-Amino-3-chloro-6-(2,4-dichloro-3-methoxyphenyl)pyridine-2-carboxylic acid]
- plant injury at 35 g/ha [1]: 0%
- pest or weed control at 35 g/ha (Papaver rhoeas): 100%
- pest or weed control at 35 g/ha (Galium aparine): 60%
- pest or weed control at 35 g/ha (Veronica persica): 75%
- pest or weed control at 35 g/ha (Lamium purpureum): 95%
- pest or weed control at 35 g/ha (barley (Hordeum vulare)): 0%
- pest or weed control at 123 g/ha ([2]; 123 g ai/ha): 90%
- pest or weed control at 123 g/ha ([3]; 123 g ai/ha): 100%
- pest or weed control at 123 g/ha ([4]; 123 g ai/ha): 100%
- % Control ABUTH [5]: 95%
- % Control AMARE [6]: 100%
- % Control CHEAL [7]: 100%
